Assay results published in ChEMBL document CHEMBL4130574, “Discovery of novel 2,4-diarylaminopyrimidine analogues as ALK and ROS1 dual inhibitors to overcome crizotinib-resistant mutants including G1202R” (Eur J Med Chem, 2018).

Assays:
KARPAS-299 = test: Antiproliferative activity against human KARPAS299 cells harboring NPM-ALK after 72 hrs by MTT assay; assay type: functional, cell-based; details: KARPAS-299, 72 h
HCC78 = test: Antiproliferative activity against human HCC78 cells harboring SLC34A2-ROS1 after 72 hrs by MTT assay; assay type: functional, cell-based; details: HCC78, 72 h
NCI-H2228 = test: cells; details: Homo sapiens, NCI-H2228, 72 h
Description: Antiproliferative activity against human NCI-H2228 cells harboring EML4-ALK after 72 hrs by MTT assay

A549 = test: cells; details: Homo sapiens, A549, 72 h
Description: Antiproliferative activity against human A549 cells harboring EGFR after 72 hrs by MTT assay

NCI-H460 = test: cells; details: Homo sapiens, NCI-H460, 72 h
Description: Antiproliferative activity against human NCI-H460 cells after 72 hrs by MTT assay

[1] = molecular target: ALK tyrosine kinase receptor (Homo sapiens, UniProt Q9UM73)
Description: Inhibition of recombinant human N-terminal GST-tagged ALK cytoplasmic domain (1058 to 1620 residues) expressed in baculovirus expression system using peptide substrate after 1 hr by mobility shift assay

[2] = molecular target: Proto-oncogene tyrosine-protein kinase ROS (Homo sapiens, UniProt P08922); test: Inhibition of recombinant human N-terminal GST-tagged ROS1 cytoplasmic domain (1883 to 2347 residues) expressed in baculovirus expression system using peptide substrate after 1 hr by mobility shift assay
Proto-oncogene tyrosine-protein kinase ROS, sequence (P08922 whole entry, the tested form may be a part): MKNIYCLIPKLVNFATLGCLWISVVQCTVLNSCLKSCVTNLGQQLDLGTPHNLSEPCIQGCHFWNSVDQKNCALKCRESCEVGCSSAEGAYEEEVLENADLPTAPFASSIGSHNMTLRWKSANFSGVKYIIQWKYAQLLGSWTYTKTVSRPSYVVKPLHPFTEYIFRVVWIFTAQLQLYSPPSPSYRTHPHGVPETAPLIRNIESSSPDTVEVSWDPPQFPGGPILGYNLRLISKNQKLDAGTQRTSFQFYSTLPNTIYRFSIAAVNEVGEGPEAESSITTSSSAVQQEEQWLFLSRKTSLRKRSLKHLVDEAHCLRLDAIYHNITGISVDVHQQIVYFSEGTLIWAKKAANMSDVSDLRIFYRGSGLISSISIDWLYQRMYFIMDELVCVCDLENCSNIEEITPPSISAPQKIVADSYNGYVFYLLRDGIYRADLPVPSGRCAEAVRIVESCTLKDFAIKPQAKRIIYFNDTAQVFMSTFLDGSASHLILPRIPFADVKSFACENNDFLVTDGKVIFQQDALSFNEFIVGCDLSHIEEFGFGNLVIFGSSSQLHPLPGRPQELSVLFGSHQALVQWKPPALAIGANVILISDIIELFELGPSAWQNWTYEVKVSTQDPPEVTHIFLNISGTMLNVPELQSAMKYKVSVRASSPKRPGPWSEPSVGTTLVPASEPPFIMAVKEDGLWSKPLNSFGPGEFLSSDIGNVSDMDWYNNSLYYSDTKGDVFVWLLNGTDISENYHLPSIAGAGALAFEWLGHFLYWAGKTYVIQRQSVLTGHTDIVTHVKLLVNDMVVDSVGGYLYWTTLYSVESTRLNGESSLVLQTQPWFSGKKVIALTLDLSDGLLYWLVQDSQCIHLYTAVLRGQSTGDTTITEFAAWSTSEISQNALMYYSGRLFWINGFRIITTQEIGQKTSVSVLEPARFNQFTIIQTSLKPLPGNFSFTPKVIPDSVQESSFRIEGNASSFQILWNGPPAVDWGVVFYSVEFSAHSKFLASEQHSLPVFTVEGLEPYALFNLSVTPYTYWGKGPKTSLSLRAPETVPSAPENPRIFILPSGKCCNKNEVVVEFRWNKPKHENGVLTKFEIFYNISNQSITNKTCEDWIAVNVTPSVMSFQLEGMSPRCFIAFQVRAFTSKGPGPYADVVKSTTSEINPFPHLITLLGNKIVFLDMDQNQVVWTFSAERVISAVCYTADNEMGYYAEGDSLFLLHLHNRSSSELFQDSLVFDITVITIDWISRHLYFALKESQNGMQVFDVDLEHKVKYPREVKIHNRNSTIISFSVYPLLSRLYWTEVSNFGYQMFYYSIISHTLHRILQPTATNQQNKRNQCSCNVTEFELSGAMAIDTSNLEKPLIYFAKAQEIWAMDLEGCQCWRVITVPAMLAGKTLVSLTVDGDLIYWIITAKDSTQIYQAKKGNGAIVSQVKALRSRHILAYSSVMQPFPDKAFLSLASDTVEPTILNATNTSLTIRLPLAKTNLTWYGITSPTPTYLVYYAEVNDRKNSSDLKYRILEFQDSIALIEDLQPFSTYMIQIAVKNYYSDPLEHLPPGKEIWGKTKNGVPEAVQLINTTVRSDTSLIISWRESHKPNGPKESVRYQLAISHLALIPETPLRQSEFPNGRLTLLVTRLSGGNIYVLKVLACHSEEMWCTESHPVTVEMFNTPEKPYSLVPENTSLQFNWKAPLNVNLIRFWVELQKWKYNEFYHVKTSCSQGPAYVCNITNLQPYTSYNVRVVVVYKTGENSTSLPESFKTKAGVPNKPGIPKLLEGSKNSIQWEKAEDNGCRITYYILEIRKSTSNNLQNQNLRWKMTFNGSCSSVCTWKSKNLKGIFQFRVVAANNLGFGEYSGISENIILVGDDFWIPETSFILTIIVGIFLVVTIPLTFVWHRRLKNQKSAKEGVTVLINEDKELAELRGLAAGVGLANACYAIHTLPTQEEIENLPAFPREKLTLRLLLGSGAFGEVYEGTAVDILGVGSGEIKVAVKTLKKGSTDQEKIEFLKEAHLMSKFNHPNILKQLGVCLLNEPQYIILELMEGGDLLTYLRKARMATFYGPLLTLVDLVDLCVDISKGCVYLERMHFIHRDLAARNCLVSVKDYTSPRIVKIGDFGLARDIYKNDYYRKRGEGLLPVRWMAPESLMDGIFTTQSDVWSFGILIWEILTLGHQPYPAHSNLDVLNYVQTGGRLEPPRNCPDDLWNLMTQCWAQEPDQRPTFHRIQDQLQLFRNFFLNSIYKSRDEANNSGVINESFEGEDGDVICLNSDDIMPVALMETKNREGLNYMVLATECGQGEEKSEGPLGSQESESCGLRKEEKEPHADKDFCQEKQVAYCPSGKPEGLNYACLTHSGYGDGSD

[3] = molecular target: Hepatocyte growth factor receptor (Homo sapiens, UniProt P08581); test: Inhibition of recombinant human N-terminal GST-tagged c-MET cytoplasmic domain (956 to 1390 residues) expressed in baculovirus expression system using peptide substrate after 1 hr by mobility shift assay
Hepatocyte growth factor receptor, sequence (P08581 whole entry, the tested form may be a part): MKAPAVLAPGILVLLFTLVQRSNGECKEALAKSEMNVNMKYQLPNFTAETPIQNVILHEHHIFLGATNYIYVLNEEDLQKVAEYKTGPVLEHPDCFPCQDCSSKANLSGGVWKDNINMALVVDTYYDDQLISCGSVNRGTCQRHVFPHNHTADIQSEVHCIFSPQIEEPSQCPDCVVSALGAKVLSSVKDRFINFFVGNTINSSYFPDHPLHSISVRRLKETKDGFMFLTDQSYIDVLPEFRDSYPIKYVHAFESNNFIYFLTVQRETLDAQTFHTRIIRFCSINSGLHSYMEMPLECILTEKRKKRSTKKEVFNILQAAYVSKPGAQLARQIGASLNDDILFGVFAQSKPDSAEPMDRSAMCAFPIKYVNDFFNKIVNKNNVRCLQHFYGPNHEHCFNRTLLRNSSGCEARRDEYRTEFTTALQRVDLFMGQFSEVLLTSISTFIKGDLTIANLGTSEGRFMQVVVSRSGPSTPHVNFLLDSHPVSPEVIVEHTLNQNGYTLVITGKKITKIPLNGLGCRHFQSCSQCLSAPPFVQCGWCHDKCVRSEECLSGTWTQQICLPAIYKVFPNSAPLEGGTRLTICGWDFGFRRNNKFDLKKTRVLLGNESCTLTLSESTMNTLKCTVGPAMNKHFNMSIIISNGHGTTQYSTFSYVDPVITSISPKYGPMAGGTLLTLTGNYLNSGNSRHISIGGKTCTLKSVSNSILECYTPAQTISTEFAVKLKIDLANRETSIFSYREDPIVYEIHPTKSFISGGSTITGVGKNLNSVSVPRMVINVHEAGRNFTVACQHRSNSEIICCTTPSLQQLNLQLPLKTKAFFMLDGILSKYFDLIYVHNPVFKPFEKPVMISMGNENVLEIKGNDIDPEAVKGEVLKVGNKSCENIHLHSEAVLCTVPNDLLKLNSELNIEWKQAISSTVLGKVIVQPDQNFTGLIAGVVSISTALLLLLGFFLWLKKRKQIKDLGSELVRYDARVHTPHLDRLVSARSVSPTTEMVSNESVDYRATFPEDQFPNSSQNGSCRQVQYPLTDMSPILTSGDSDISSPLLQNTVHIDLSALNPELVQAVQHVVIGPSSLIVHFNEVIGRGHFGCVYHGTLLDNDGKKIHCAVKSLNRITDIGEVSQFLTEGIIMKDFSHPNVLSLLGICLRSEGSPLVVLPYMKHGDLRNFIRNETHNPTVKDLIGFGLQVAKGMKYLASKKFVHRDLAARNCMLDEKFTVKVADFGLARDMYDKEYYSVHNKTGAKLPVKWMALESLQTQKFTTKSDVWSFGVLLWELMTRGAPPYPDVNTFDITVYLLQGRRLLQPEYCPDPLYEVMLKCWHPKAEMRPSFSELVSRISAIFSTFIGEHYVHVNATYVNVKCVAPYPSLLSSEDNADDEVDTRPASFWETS

[4] = molecular target: Epidermal growth factor receptor (Homo sapiens, UniProt P00533)
Epidermal growth factor receptor, sequence (P00533 whole entry): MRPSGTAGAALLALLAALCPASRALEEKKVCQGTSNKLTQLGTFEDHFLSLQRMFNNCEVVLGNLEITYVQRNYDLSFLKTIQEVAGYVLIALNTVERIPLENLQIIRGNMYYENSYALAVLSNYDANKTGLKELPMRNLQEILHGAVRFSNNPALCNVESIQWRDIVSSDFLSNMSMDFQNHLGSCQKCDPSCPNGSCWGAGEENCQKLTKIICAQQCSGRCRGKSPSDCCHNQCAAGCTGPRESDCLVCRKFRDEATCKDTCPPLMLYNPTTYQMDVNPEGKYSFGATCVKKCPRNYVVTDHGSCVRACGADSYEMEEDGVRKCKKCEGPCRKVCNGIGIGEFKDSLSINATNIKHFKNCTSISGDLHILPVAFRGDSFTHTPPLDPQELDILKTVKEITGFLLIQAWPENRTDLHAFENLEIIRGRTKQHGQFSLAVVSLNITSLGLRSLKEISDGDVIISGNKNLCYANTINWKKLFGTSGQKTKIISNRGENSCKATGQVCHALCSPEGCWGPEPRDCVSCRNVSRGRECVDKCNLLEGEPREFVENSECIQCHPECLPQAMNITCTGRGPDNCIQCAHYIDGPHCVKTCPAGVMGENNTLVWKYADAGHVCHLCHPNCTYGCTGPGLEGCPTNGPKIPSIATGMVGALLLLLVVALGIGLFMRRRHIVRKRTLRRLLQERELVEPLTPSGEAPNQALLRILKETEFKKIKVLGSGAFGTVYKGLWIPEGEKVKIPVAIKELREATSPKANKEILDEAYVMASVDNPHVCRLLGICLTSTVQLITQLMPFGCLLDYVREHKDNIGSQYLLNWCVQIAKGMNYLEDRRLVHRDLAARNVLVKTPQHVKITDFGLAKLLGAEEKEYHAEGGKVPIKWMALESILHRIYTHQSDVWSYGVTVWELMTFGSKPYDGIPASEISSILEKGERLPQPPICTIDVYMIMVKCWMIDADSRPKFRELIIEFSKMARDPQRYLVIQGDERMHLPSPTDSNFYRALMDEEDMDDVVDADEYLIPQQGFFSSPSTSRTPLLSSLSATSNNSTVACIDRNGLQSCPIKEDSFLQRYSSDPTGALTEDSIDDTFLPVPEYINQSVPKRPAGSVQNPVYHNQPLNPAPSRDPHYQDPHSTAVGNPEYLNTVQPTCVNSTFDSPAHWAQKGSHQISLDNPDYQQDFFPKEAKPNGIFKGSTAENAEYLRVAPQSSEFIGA
Description: Inhibition of recombinant human N-terminal GST-tagged EGFR cytoplasmic domain (669 to 1210 residues) expressed in baculovirus expression system using peptide substrate after 1 hr by mobility shift assay

[5] = Selectivity ratio of IC50 for human HCC78 cells harboring SLC34A2-ROS1 to IC50 for human KARPAS299 cells harboring NPM-ALK; assay type: functional
[6] = Selectivity ratio of IC50 for human HCC78 cells harboring SLC34A2-ROS1 to IC50 for human NCI-H2228 cells harboring EML4-ALK; assay type: functional

| Compound | IC50 (KARPAS-299) [nM] | IC50 (HCC78) [nM] | IC50 (NCI-H2228) [nM] | IC50 (A549) [nM] | IC50 (NCI-H460) [nM] | IC50 [1] [nM] | IC50 [2] [nM] | IC50 [3] [nM] | IC50 [4] [nM] | Ratio IC50 [5] | Ratio IC50 [6] |
| --- | --- | --- | --- | --- | --- | --- | --- | --- | --- | --- | --- |
| CC(C)Oc1cc(-c2nc(CN3CCN(C)CC3)cs2)ccc1Nc1ncc(Cl)c(Nc2ccccc2S(=O)(=O)C(C)C)n1 | 28 | 810 | 99 | > 1000 | > 1000 | 3.4 | 19.3 | > 1000 | > 1000 |  |  |
| CC1CCN(Cc2csc(-c3ccc(Nc4ncc(Cl)c(Nc5ccccc5S(=O)(=O)C(C)C)n4)c(OC(C)C)c3)n2)CC1 | 240 | > 1000 | 280 | > 1000 | > 1000 |  |  |  |  |  |  |
| CC(C)Oc1cc(-c2nc(CN3CCOCC3)cs2)ccc1Nc1ncc(Cl)c(Nc2ccccc2S(=O)(=O)C(C)C)n1 | 140 | > 1000 | 350 | > 1000 | 690 |  |  |  |  |  |  |
| Cc1cc(Nc2ncc(Cl)c(Nc3ccccc3S(=O)(=O)C(C)C)n2)c(OC(C)C)cc1C1CCNCC1 [CERITINIB] |  |  | 99 | > 1000 | > 1000 |  |  |  |  |  |  |
| COc1cc(-c2nc(CNCCO)cs2)ccc1Nc1ncc(Cl)c(Nc2ccccc2S(=O)(=O)C(C)C)n1 | 230 | 330 | 300 | > 1000 | > 1000 |  |  |  |  |  |  |
| CC(C)Oc1cc(-c2nc(CN3CCCC3)cs2)ccc1Nc1ncc(Cl)c(Nc2ccccc2S(=O)(=O)C(C)C)n1 | 190 | > 1000 | 350 | > 1000 | > 1000 |  |  |  |  |  |  |
| CC(C)Oc1cc(-c2nc(CNCCO)cs2)ccc1Nc1ncc(Cl)c(Nc2ccccc2S(=O)(=O)C(C)C)n1 | 190 | > 1000 | 350 | > 1000 | > 1000 |  |  |  |  |  |  |
| CC(C)Oc1cc(-c2nc(CN3CCN(CCO)CC3)cs2)ccc1Nc1ncc(Cl)c(Nc2ccccc2S(=O)(=O)C(C)C)n1 | 22 | 580 | 89 | > 1000 | > 1000 | 4 | 13.4 | > 1000 | > 1000 |  |  |
| CC(C)Oc1cc(-c2nc(CN3CCCCC3)cs2)ccc1Nc1ncc(Cl)c(Nc2ccccc2S(=O)(=O)C(C)C)n1 | 120 | > 1000 | 230 | > 1000 | > 1000 |  |  |  |  |  |  |
| CCN(CC)Cc1csc(-c2ccc(Nc3ncc(Cl)c(Nc4ccccc4S(=O)(=O)C(C)C)n3)c(OC(C)C)c2)n1 | 320 | 920 | 500 | > 1000 | 750 |  |  |  |  |  |  |
| CC(C)Oc1cc(-c2nc(CN3CCC[C@H]3CO)cs2)ccc1Nc1ncc(Cl)c(Nc2ccccc2S(=O)(=O)C(C)C)n1 | 200 | > 1000 | 300 | 850 | > 1000 |  |  |  |  |  |  |
| CC(C)Oc1cc(-c2nc(CNC3CC3)cs2)ccc1Nc1ncc(Cl)c(Nc2ccccc2S(=O)(=O)C(C)C)n1 | 240 | > 1000 | 370 | > 1000 | > 1000 |  |  |  |  |  |  |

Continued, in another order:

| IC50 (KARPAS-299) [nM] | IC50 (HCC78) [nM] | IC50 (NCI-H2228) [nM] | IC50 (A549) [nM] | IC50 (NCI-H460) [nM] | IC50 [1] [nM] | IC50 [2] [nM] | IC50 [3] [nM] | IC50 [4] [nM] | Compound | Ratio IC50 [5] | Ratio IC50 [6] |
| --- | --- | --- | --- | --- | --- | --- | --- | --- | --- | --- | --- |
| 150 | 490 | 130 | > 1000 | > 1000 |  |  |  |  | COc1cc(-c2nc(CN3CCOCC3)cs2)ccc1Nc1ncc(Cl)c(Nc2ccccc2S(=O)(=O)C(C)C)n1 |  |  |
| 500 | > 1000 | > 1000 | > 1000 | > 1000 |  |  |  |  | CCN(CC)Cc1cn(-c2ccc(Nc3ncc(Cl)c(Nc4ccccc4S(=O)(=O)C(C)C)n3)c(OC)c2)nn1 |  |  |
| 820 | > 1000 | > 1000 | > 1000 | > 1000 |  |  |  |  | COc1cc(-n2cc(CNO)nn2)ccc1Nc1ncc(Cl)c(Nc2ccccc2S(=O)(=O)C(C)C)n1 |  |  |
| 320 | 520 | 380 | 910 | > 1000 |  |  |  |  | COc1cc(-n2cc(CN3CCC[C@H]3CO)nn2)ccc1Nc1ncc(Cl)c(Nc2ccccc2S(=O)(=O)C(C)C)n1 |  |  |
| 190 | 380 | 230 | 800 | > 1000 | 3 | 8.5 | 967 | > 1000 | COc1cc(-c2nc(CN3CCC(C)CC3)cs2)ccc1Nc1ncc(Cl)c(Nc2ccccc2S(=O)(=O)C(C)C)n1 |  |  |
| 280 | 350 | 310 | > 1000 | > 1000 |  |  |  |  | COc1cc(-n2cc(CN3CCN(C(C)=O)CC3)nn2)ccc1Nc1ncc(Cl)c(Nc2ccccc2S(=O)(=O)C(C)C)n1 |  |  |
| 140 | 520 | 290 | 700 | > 1000 |  |  |  |  | COc1cc(-n2cc(CN3CCN(S(C)(=O)=O)CC3)nn2)ccc1Nc1ncc(Cl)c(Nc2ccccc2S(=O)(=O)C(C)C)n1 |  |  |
| 140 | 780 | 340 | > 1000 | > 1000 |  |  |  |  | COc1cc(-c2nc(CN3CCCC3)cs2)ccc1Nc1ncc(Cl)c(Nc2ccccc2S(=O)(=O)C(C)C)n1 |  |  |
| 22 | 93 | 98 | > 1000 | 870 | 2.3 | 9.8 | 820 | > 1000 | COc1cc(-c2nc(CN3CCN(C)CC3)cs2)ccc1Nc1ncc(Cl)c(Nc2ccccc2S(=O)(=O)C(C)C)n1 | 2.3 | 2.3 |
| > 1000 | 380 | 480 | > 1000 | > 1000 |  |  |  |  | COc1cc(-n2cc(CN(C)C)nn2)ccc1Nc1ncc(Cl)c(Nc2ccccc2S(=O)(=O)C(C)C)n1 |  |  |
| 180 | 240 | 150 | > 1000 | > 1000 |  |  |  |  | COc1cc(-n2cc(CN3CCOCC3)nn2)ccc1Nc1ncc(Cl)c(Nc2ccccc2S(=O)(=O)C(C)C)n1 |  |  |
| 100 | 430 | 180 | > 1000 | > 1000 |  |  |  |  | COc1cc(-c2nc(CN3CCCCC3)cs2)ccc1Nc1ncc(Cl)c(Nc2ccccc2S(=O)(=O)C(C)C)n1 |  |  |
| 380 | 270 | 410 | > 1000 | > 1000 |  |  |  |  | COc1cc(-n2cc(CN3CCCC3)nn2)ccc1Nc1ncc(Cl)c(Nc2ccccc2S(=O)(=O)C(C)C)n1 |  |  |
| 160 | 470 | 230 | > 1000 | > 1000 |  |  |  |  | COc1cc(-c2nc(CN3CCC[C@H]3CO)cs2)ccc1Nc1ncc(Cl)c(Nc2ccccc2S(=O)(=O)C(C)C)n1 |  |  |
| 250 | 320 | 190 | > 1000 | > 1000 | 3.9 | 4.6 | 703 | > 1000 | COc1cc(-n2cc(CN3CCC(C)CC3)nn2)ccc1Nc1ncc(Cl)c(Nc2ccccc2S(=O)(=O)C(C)C)n1 |  |  |
| 130 | 180 | 200 | > 1000 | 970 |  |  |  |  | COc1cc(-n2cc(CN3CCCCC3)nn2)ccc1Nc1ncc(Cl)c(Nc2ccccc2S(=O)(=O)C(C)C)n1 |  |  |
| 37 | 96 | 80 | > 1000 | 880 | 3 | 3 | 731 | 865 | COc1cc(-n2cc(CN3C[C@@H](C)N[C@@H](C)C3)nn2)ccc1Nc1ncc(Cl)c(Nc2ccccc2S(=O)(=O)C(C)C)n1 |  |  |
| 35 | 81 | 87 | > 1000 | > 1000 | 4.3 | 8 | > 1000 | 890 | COc1cc(-n2cc(CN3CCNCC3)nn2)ccc1Nc1ncc(Cl)c(Nc2ccccc2S(=O)(=O)C(C)C)n1 |  |  |
